Two molecules from patent US20190031717A1, “MULTI-FUNCTIONAL FUSION POLYPEPTIDE, PREPARATION METHOD THEREOF, AND APPLICATION OF SAME” (NANJING ANJI BIOLOGICAL TECHNOLOGY CO., LTD, priority 2016, published 2019) can be followed below.

The subject of one test is Esophageal cancer. Nature of the test: MTT assay, tumor cells. The arrangement: concentration or dose not given beside the values. The conditions noted are these: 48 hours, mean ± SD. Type of test: cell-based, human. Here is the method:
(§1) A variety of human tumor cells were cultured in a 37° C., 5% (volume fraction) CO2 incubator to a density of 90% or more, collected by trypsinization, resuspended in a culture medium and counted under a microscope, and the cells were harvested. The concentration was adjusted to 2.0×10^4 cells/mL, the cell suspension was inoculated into a 96-well plate at 100 μL per well and cultured overnight at 37° C. in a 5% (volume fraction) CO2 incubator. After the cells were completely adhered, the polypeptides of the present invention were added as drug-administered groups, and a culture solution containing no drug was used as a blank control group, and the culture solution was diluted to each predetermined concentration. Each dilution was separately added to a 96-well plate at 100 μL per well and incubated for 48 hours at 37° C. in a 5% (volume fraction) CO2 incubator. 20 μL of 5 mg/mL MTT was added to each well of a 96-well plate and incubation was continued for 4 h. The medium was aspirated and dissolved in 100 μL of DMSO per well. The absorbance was measured with a microplate reader at a detection wavelength of 570 nm and a reference wavelength of 630 nm, and the growth inhibition rate was calculated as follows: tumor growth inhibition rate (%)=(1−absorbance value of the administered group/unadministered group absorbance value)×100%, and the experiment was repeated 3 times independently. The results obtained from the test were expressed as mean±standard deviation, and the tumor growth inhibition rate of the unadministered group was 0. The results in Table 7 indicate that the polypeptides of the present invention have a significant inhibitory effect on the growth of various tumors (FIG. 6).
(Tetrazolium dyes change colour on reduction, which living cells bring about.)

Another test concerns Pancreatic cancer. Put plainly: MTT assay, tumor cells. The following applies: 48 hours, mean ± SD. The arrangement: concentration or dose not given beside the values. Type of test: cell-based, human. The procedure: as §1
A further test deals with Ovarian cancer. Nature of the test: MTT assay, tumor cells. The test is classed as cell-based, human. The arrangement: concentration or dose not given beside the values. The conditions noted are these: 48 hours, mean ± SD. The procedure:
as §1

A further test relates to Kidney cancer. Nature of the test: MTT assay, tumor cells. The test is classed as cell-based, human. Further details: concentration or dose not given beside the values. The following applies: 48 hours, mean ± SD. The procedure:
as §1

Another test has as its system Breast cancer. Put plainly: MTT assay, tumor cells. The test is classed as cell-based, human. The arrangement: concentration or dose not given beside the values. The conditions noted are these: 48 hours, mean ± SD. The procedure:
as §1

A further test concerns Brain tumor. Nature of the test: MTT assay, tumor cells. Type of test: cell-based, human. Further details: concentration or dose not given beside the values. The conditions noted are these: 48 hours, mean ± SD. The procedure:
as §1

Another test deals with Hemangioma. Nature of the test: MTT assay, tumor cells. The test is classed as cell-based, human. The conditions noted are these: 48 hours, mean ± SD. Further details: concentration or dose not given beside the values. Here is the method: as §1
The next test has as its system Head and neck cancer. Put plainly: MTT assay, tumor cells. The test is classed as cell-based, human. Further details: concentration or dose not given beside the values. The following applies: 48 hours, mean ± SD. Here is the method: as §1
The test system of the next test is Uterine cancer. Put plainly: MTT assay, tumor cells. Type of test: cell-based, human. The arrangement: concentration or dose not given beside the values. The conditions noted are these: 48 hours, mean ± SD. Here is the method: as §1
The subject of the next test is Gastric cancer. Nature of the test: MTT assay, tumor cells. The test is classed as cell-based, human. The arrangement: concentration or dose not given beside the values. The following applies: 48 hours, mean ± SD. The procedure:
as §1

For the next test, the system named is Liver cancer. Nature of the test: MTT assay, tumor cells. Type of test: cell-based, human. The arrangement: concentration or dose not given beside the values. The conditions noted are these: 48 hours, mean ± SD. Here is the method:
as §1

The next test deals with Bladder Cancer. Nature of the test: MTT assay, tumor cells. The test is classed as cell-based, human. The arrangement: concentration or dose not given beside the values. The conditions noted are these: 48 hours, mean ± SD. Here is the method:
as §1

In a further test the test system is sarcoma. Put plainly: MTT assay, tumor cells. The following applies: 48 hours, mean ± SD. The test is classed as cell-based, human. Further details: concentration or dose not given beside the values. The procedure: as §1
The next test relates to Melanoma. Put plainly: MTT assay, tumor cells. Type of test: cell-based, human. Further details: concentration or dose not given beside the values. The following applies: 48 hours, mean ± SD. Here is the method: as §1
A further test has as its system Thyroid cancer. Put plainly: MTT assay, tumor cells. Type of test: cell-based, human. The arrangement: concentration or dose not given beside the values. The following applies: 48 hours, mean ± SD. The procedure:
as §1

A further test deals with Prostate cancer. Put plainly: MTT assay, tumor cells. The following applies: 48 hours, mean ± SD. The arrangement: concentration or dose not given beside the values. Type of test: cell-based, human. Here is the method: as §1
Another test relates to Cervical cancer. Nature of the test: MTT assay, tumor cells. Type of test: cell-based, human. The arrangement: concentration or dose not given beside the values. The following applies: 48 hours, mean ± SD. The procedure: as §1
A further test deals with Colorectal cancer. Nature of the test: MTT assay, tumor cells. The test is classed as cell-based, human. The arrangement: concentration or dose not given beside the values. The conditions noted are these: 48 hours, mean ± SD. The procedure: as §1
The next test has as its system Squamous cell carcinoma. Put plainly: MTT assay, lung cancer tumor cells. Further details: concentration or dose not given beside the values. Type of test: cell-based, human. The following applies: 48 h, mean ± SD. The procedure:
(§2) The inhibition of the growth of human lung cancer tumor cells by the polypeptide of the present invention was examined by MTT assay. The lung cancer tumor cells were cultured in a 37° C., 5% (volume fraction) CO2 incubator to a density of 90% or more, and collected by trypsinization. The cells were resuspended in the culture medium and counted under a microscope to adjust the cell concentration to 2.0×10^4 cells/mL, the cell suspension was inoculated into a 96-well plate at 100 μL per well, and cultured overnight at 37° C. in a 5% (volume fraction) CO2 incubator. After the cells were completely adhered, the polypeptide of the present invention was added as a drug-administered group, and a culture solution containing no drug was used as a blank control group, and the culture solution was diluted to each predetermined concentration. Each dilution was separately added to a 96-well plate at 100 μL per well and incubated for 48 h at 37° C. in a 5% (volume fraction) CO2 incubator. 20 μL of 5 mg/mL MTT was added to each well of a 96-well plate, and incubation was continued for 4 hours. The medium was aspirated, and the cells were dissolved in 100 μL of DMSO per well. The absorbance was measured by a microplate reader at a detection wavelength of 570 nm and a reference wavelength of 630 nm, and the growth inhibition rate was calculated as follows: tumor growth inhibition rate (%)=(1−administered group absorbance value/unadministered group absorbance value)×100%, and the experiment was repeated 3 times independently. The results obtained by the test were expressed as mean±standard deviation. The results in Table 6 indicate that the polypeptides of the present invention have a good inhibitory effect on proliferation of a variety of human lung cancer tumors (FIG. 5).

For the next test, the system named is Adenocarcinoma. Put plainly: MTT assay, lung cancer tumor cells. Type of test: cell-based, human. The arrangement: concentration or dose not given beside the values. The following applies: 48 h, mean ± SD. Here is the method:
as §2

Test [1] concerns Non-small cell lung cancer. Put plainly: MTT assay, lung cancer tumor cells. Type of test: cell-based, human. The following applies: 48 h, mean ± SD. Further details: concentration or dose not given beside the values. The procedure: as §2
In the next test the test system is Adenosquamous carcinoma. Put plainly: MTT assay, lung cancer tumor cells. Type of test: cell-based, human. The arrangement: concentration or dose not given beside the values. The following applies: 48 h, mean ± SD. The procedure: as §2
The next test concerns Small Cell Lung Cancer. Nature of the test: MTT assay, lung cancer tumor cells. The conditions noted are these: 48 h, mean ± SD. The test is classed as cell-based, human. Further details: concentration or dose not given beside the values. The procedure:
as §2

In another test the test system is Large cell lung cancer. Put plainly: MTT assay, lung cancer tumor cells. The test is classed as cell-based, human. Further details: concentration or dose not given beside the values. The following applies: 48 h, mean ± SD. The procedure:
as §2

Test [2] concerns Pneumonia caused by lung infection. Put plainly: Mouse pneumonia model, pneumonia caused by lung infection. The conditions noted are these: mean ± SD. The test is classed as in vivo, BALB/C mice. Further details: concentration or dose not given beside the values. The procedure: (§3) The mouse pneumonia model was successfully established by the nose-drop method. To build the mouse pneumonia model, BALB/C mice with a body mass of 16-22 g were selected and anesthetized pneumonia chain was prepared after anesthesia with ether on day 0, day 1, and day 2. Staphylococcal fluid, adenovirus concentrate, Mycoplasma pneumoniae, Chlamydia pneumoniae, protozoa, and pneumonia fungi were slowly dripped into the nasal cavity of the mice, so that they enter the tracheobronchial. During the operation process, care was exercised to prevent bacterial fluid from flowing into the esophagus, which leads to inactivation the bacterial fluid. After successful model establishment, the polypeptides of the present invention were administered, and the results were shown in Table 5. […] The results were expressed in average value±standard deviation.

In a further test the test system is Mycoplasma pneumoniae. Nature of the test: Mouse pneumonia model, mycoplasma. The conditions noted are these: mean ± SD. The arrangement: concentration or dose not given beside the values. The test is classed as in vivo, BALB/C mice. The procedure: as §3
A further test concerns Staphylococcal fluid. Nature of the test: Mouse pneumonia model, bacterial. The test is classed as in vivo, BALB/C mice. Further details: concentration or dose not given beside the values. The following applies: mean ± SD. Here is the method: as §3
The subject of another test is Chlamydia pneumoniae. Nature of the test: Mouse pneumonia model, chlamydia. The test is classed as in vivo, BALB/C mice. The arrangement: concentration or dose not given beside the values. The conditions noted are these: mean ± SD. Here is the method: as §3
For another test, the system named is adenovirus concentrate. Nature of the test: Mouse pneumonia model, viral. The test is classed as in vivo, BALB/C mice. The conditions noted are these: mean ± SD. The procedure: as §3
The next test has as its system protozoa. Nature of the test: Mouse pneumonia model, protozoal. Type of test: in vivo, BALB/C mice. The arrangement: concentration or dose not given beside the values. The conditions noted are these: mean ± SD. The procedure: as §3
A further test relates to pneumonia fungi. Nature of the test: Mouse pneumonia model, fungal. Type of test: in vivo, BALB/C mice. The arrangement: concentration or dose not given beside the values. The conditions noted are these: mean ± SD. Here is the method:
as §3

Consider `CC(=O)O[C@@]12CO[C@@H]1C[C@H](O)[C@@]1(C)C(=O)[C@H](O)C3=C(C)[C@@H](OC(=O)[C@H](O)[C@@H](NC(=O)OC(C)(C)C)c4ccccc4)C[C@@](O)([C@@H](OC(=O)c4ccccc4)[C@H]21)C3(C)C` [Docetaxel, reference compound], for which the “tumor growth inhibition rate, MTT Assay” value in the test with Esophageal cancer worked out at 44.16 ± 13.36%; in the test on Pancreatic cancer it was 49.42 ± 18.21%; in the test on Ovarian cancer, 60.97 ± 18.44%; with Kidney cancer it was 40.23 ± 15.44%; in the test with Breast cancer, 61.44 ± 18.58%; in the test with Brain tumor it was 45.90 ± 13.88%. The “tumor growth inhibition rate, MTT Assay” value in the test with Hemangioma is 68.47 ± 20.71%; in the test on Head and neck cancer, 32.59 ± 9.86%; in the test on Uterine cancer, 52.33 ± 19.09%; in the test on Gastric cancer, 43.57 ± 16.44%; in the test with Liver cancer, 48.95 ± 14.80%; in the test with Bladder Cancer, 34.82 ± 10.53%. In addition, the “tumor growth inhibition rate, MTT Assay” value in the test with sarcoma turned out to be 44.26 ± 13.39%; with Melanoma, 38.17 ± 11.54%; in the test with Thyroid cancer, 42.03 ± 12.71%; with Prostate cancer, 54.25 ± 19.68%; in the test on Cervical cancer, 50.54 ± 21.82%; in the test with Colorectal cancer it was 57.20 ± 17.30%. Also, the “tumor growth inhibition rate, MTT Assay” value in the test with Squamous cell carcinoma stood at 39.78 ± 10.73%; in the test on Adenocarcinoma it was 52.54 ± 15.12%; in test [1], 55.50 ± 19.83%; in the test on Adenosquamous carcinoma it was 35.87 ± 13.84%; with Small Cell Lung Cancer it was 42.16 ± 14.54%; in the test on Large cell lung cancer it was 52.69 ± 16.12%.
As for Penicillin [reference compound], the “Inhibitory Effects on Various Pulmonary Infections” value in test [2] was 31.03 ± 18.46%; in the test with Mycoplasma pneumoniae, 23.91 ± 14.27%; in the test with Staphylococcal fluid, 26.52 ± 11.07%; with Chlamydia pneumoniae it was 28.10 ± 14.99%; in the test with adenovirus concentrate, 35.02 ± 15.58%; in the test with protozoa, 37.00 ± 20.45%. In the test with pneumonia fungi, the “Inhibitory Effects on Various Pulmonary Infections” value was 35.13 ± 16.62%.
